{"source": "ChEMBL document CHEMBL4831528", "about": "“Discovery of Novel Pterostilbene-Based Derivatives as Potent and Orally Active NLRP3 Inflammasome Inhibitors with Inflammatory Activity for Colitis” (J Med Chem, 2021)", "key": {"[1]": {"molecular_target": "NLR family CARD domain-containing protein 4 (Mus musculus) (UniProt Q3UP24)", "sequence (Q3UP24 whole entry, the tested form may be a part)": "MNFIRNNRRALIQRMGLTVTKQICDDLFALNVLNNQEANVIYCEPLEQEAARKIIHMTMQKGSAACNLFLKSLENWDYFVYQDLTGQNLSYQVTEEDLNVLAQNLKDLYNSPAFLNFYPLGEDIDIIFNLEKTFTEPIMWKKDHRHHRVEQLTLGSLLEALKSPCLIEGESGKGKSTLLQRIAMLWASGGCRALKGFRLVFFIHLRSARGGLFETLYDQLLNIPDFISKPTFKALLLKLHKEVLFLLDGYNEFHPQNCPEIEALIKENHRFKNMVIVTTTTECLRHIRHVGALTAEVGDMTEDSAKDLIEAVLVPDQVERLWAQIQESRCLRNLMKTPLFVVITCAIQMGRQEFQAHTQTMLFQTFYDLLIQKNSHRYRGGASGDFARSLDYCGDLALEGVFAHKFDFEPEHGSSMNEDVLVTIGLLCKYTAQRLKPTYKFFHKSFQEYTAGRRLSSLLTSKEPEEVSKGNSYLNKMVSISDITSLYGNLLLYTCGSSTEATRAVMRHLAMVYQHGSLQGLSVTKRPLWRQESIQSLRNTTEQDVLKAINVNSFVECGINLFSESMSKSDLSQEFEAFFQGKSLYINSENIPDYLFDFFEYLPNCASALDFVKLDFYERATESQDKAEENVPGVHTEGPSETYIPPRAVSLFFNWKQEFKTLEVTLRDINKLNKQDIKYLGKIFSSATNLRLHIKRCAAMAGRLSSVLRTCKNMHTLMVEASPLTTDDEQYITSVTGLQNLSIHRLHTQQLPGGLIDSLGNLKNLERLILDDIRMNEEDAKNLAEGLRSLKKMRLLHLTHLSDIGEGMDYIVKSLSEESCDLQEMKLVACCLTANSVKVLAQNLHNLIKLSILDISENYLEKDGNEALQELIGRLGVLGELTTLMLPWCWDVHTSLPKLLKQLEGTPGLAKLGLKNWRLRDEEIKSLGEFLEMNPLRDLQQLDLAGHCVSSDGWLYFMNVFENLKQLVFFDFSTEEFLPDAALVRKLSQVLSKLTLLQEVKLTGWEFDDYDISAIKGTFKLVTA", "test": "Inhibition of NLRC4 inflammasome activation in LPS-stimulated mouse bone marrow-derived macrophages assessed as reduction in IL-1beta secretion at 2 uM preincubated for 30 mins followed by Salmonella addition and measured after 4 hrs by ELISA", "assay_type": "tissue-based", "conditions": "Macrophage, time 4.5 hrs"}, "[2]": {"molecular_target": "NACHT, LRR and PYD domains-containing protein 3 (Mus musculus) (UniProt Q8R4B8)", "sequence (Q8R4B8 whole entry, the tested form may be a part)": "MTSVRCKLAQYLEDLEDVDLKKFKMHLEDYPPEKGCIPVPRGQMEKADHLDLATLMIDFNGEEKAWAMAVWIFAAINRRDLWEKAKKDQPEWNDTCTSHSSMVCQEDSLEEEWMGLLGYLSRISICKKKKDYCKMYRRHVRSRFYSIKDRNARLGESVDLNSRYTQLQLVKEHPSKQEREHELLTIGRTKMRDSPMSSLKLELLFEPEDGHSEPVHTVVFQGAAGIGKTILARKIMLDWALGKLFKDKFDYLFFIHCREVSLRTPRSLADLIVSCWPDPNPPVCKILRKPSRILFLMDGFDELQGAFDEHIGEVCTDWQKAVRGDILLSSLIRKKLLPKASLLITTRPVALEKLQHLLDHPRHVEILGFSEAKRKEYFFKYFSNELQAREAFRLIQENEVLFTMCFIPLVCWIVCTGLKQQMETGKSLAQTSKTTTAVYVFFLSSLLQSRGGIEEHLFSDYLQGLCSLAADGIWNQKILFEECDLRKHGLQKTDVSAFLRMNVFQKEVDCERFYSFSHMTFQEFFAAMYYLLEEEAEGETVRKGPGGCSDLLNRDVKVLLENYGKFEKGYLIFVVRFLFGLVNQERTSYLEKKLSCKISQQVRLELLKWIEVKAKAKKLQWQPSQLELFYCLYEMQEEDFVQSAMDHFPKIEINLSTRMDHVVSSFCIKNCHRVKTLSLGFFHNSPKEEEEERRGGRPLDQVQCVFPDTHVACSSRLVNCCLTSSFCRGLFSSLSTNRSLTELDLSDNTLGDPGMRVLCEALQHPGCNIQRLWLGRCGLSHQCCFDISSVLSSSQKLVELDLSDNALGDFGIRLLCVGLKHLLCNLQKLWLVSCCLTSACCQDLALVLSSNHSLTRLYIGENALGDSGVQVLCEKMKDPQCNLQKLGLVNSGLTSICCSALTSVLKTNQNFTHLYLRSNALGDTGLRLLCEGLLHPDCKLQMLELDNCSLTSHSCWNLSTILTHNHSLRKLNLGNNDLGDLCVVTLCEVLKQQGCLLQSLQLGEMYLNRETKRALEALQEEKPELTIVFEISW", "test": "Inhibition of NLRP3 inflammasome activation in LPS-stimulated mouse bone marrow-derived macrophages assessed as attenuation of ASC polymer at 1 to 4 uM preincubated for 30 mins followed by nigericin addition and measured after 0.5 hrs by Western blot analysis", "assay_type": "tissue-based", "conditions": "Macrophage, dose 1-4 µM, time 60.0 min"}, "[3]": {"molecular_target": "NACHT, LRR and PYD domains-containing protein 3 (Mus musculus) (UniProt Q8R4B8)", "test": "Inhibition of NLRP3 inflammasome activation in LPS-stimulated mouse bone marrow-derived macrophages assessed as reduction in caspase1 p20 secretion preincubated for 30 mins followed by nigericin addition and measured after 30 mins by Western blot analysis", "assay_type": "tissue-based", "conditions": "Macrophage, time 60.0 min"}, "[4]": {"test": "Toxicity in C57BL/6 mouse assessed as effect on heart at 20 to 40 mg/kg, ig administered for 28 days", "assay_type": "organism-based", "conditions": "in vivo, po, 672 h, dose 20-40 mg/kg, time 28 day"}, "Mus musculus [5]": {"test_system": "Mus musculus", "test": "Downregulation of IL-1beta expression in colon of C57BL/6 mouse model of DSS-induced ulcerative colitis at 10 to 20 mg/kg, ig administered for 7 days by Western blot analysis", "assay_type": "functional, organism-based", "conditions": "dose 10-20 mg/kg, time 7.0 day"}, "[6]": {"molecular_target": "T1, NACHT, LRR and PYD domains-containing protein 3 (Homo sapiens, UniProt Q96P20)", "T1 sequence (Q96P20 whole entry, the tested form may be a part)": "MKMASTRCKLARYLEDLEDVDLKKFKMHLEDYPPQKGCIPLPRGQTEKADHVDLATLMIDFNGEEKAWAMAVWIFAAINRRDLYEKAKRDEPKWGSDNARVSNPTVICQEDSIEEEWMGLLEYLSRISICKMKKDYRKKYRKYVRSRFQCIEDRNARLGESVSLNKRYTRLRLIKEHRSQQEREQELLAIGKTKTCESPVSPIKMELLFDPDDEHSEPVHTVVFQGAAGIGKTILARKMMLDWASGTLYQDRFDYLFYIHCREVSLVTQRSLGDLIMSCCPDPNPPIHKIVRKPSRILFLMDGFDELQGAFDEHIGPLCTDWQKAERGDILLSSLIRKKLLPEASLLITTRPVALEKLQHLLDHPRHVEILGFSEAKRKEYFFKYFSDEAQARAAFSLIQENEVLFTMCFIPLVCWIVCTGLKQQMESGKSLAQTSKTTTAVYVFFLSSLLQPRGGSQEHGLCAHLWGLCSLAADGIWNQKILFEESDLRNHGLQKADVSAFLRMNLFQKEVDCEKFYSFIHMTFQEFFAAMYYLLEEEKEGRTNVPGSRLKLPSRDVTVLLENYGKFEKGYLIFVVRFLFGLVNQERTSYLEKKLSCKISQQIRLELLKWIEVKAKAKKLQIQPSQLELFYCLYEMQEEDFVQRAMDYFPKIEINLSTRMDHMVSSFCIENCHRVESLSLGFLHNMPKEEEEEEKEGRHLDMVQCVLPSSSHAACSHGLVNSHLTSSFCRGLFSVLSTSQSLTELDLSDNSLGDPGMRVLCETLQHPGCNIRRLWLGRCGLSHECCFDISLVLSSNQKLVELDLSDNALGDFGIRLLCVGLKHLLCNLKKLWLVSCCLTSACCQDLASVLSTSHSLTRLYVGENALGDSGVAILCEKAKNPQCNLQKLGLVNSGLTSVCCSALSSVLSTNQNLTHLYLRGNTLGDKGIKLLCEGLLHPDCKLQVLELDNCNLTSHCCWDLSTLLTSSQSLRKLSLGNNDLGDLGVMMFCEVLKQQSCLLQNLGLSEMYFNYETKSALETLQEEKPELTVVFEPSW", "test": "Inhibition of recombinant human NLRP3 preincubated for 15 mins followed by ATP addition by ADP-Glo kinase assay"}, "Mus musculus [7]": {"test_system": "Mus musculus", "test": "Protection against DSS-induced acute ulcerative colitis in C57BL/6 mouse assessed as reduction in bloody stool at 10 to 20 mg/kg, ig administered for 7 days", "assay_type": "functional, organism-based", "conditions": "dose 10-20 mg/kg, time 7.0 day"}, "[8]": {"molecular_target": "NACHT, LRR and PYD domains-containing protein 3 (Mus musculus) (UniProt Q8R4B8)", "test": "Inhibition of NLRP3 inflammasome activation in LPS-stimulated mouse bone marrow-derived macrophages assessed as reduction in cleaved IL-1beta secretion preincubated for 30 mins followed by nigericin addition and measured after 30 mins by Western blot analysis", "assay_type": "tissue-based", "conditions": "Macrophage, time 60.0 min"}, "[9]": {"test": "Intrinsic clearance in mouse liver microsomes preincubated for 5 mins followed by NADPH addition and measured after 5 to 60 mins by LC-MS/MS analysis", "assay_type": "ADME, Microsome", "conditions": "time 5-60 min, read-out: CLH"}, "[10]": {"test": "Half life in mouse at 20 mg/kg, po measured up to 24 hrs by LC-MS/MS analysis", "assay_type": "ADME, organism-based", "conditions": "in vivo"}, "Mus musculus [11]": {"test_system": "Mus musculus", "test": "Downregulation of phosphorylated STAT3 expression in colon of C57BL/6 mouse model of DSS-induced ulcerative colitis at 10 to 20 mg/kg, ig administered for 7 days by Western blot analysis", "assay_type": "functional, organism-based", "conditions": "dose 10-20 mg/kg, time 7.0 day"}, "[12]": {"molecular_target": "NACHT, LRR and PYD domains-containing protein 3 (Mus musculus) (UniProt Q8R4B8)", "test": "Inhibition of NLRP3 inflammasome activation in LPS-stimulated mouse bone marrow-derived macrophages assessed as attenuation of ASC monomer at 1 to 4 uM preincubated for 30 mins followed by nigericin addition and measured after 0.5 hrs by Western blot analysis", "assay_type": "tissue-based", "conditions": "Macrophage, dose 1-4 µM, time 60.0 min"}, "Mus musculus [13]": {"test_system": "Mus musculus", "test": "In vivo inhibition of NLRP3 inflammasome activation in C57BL/6 mouse model of DSS-induced ulcerative colitis assessed as reduction in IL-1beta expression at 10 to 20 mg/kg, ig administered for 7 days by ELISA", "assay_type": "functional, organism-based", "conditions": "dose 10-20 mg/kg, time 7.0 day"}, "Mus musculus [14]": {"test_system": "Mus musculus", "test": "Downregulation of NLRP3 expression in colon of C57BL/6 mouse model of DSS-induced ulcerative colitis at 10 to 20 mg/kg, ig administered for 7 days by Western blot analysis", "assay_type": "functional, organism-based", "conditions": "dose 10-20 mg/kg, time 7.0 day"}, "BMDM [15]": {"test_system": "BMDM", "test": "Effect on pro-caspase1(p45) expression in LPS-stimulated mouse bone marrow-derived macrophages at 0.5 to 2 uM preincubated for 30 mins followed by nigericin addition and measured after 30 mins by Western blot analysis", "assay_type": "functional, tissue-based", "conditions": "dose 0.5-2 µM, time 60.0 min"}, "Mus musculus [16]": {"test_system": "Mus musculus", "test": "Downregulation of IL6 expression in colon of C57BL/6 mouse model of DSS-induced ulcerative colitis at 10 to 20 mg/kg, ig administered for 7 days by ELISA", "assay_type": "functional, organism-based", "conditions": "dose 10-20 mg/kg, time 7.0 day"}, "[17]": {"molecular_target": "T1, NACHT, LRR and PYD domains-containing protein 3", "test": "Binding affinity to His-GFP fused tagged NLRP3 (unknown origin) expressed in HEK293T incubated for 30 mins by microscale thermophoresis assay", "assay_type": "cell-based"}, "BMDM [18]": {"test_system": "BMDM", "test": "Effect on ASC expression in LPS-stimulated mouse bone marrow-derived macrophages at 0.5 to 2 uM preincubated for 30 mins followed by nigericin addition and measured after 30 mins by Western blot analysis", "assay_type": "functional, tissue-based", "conditions": "dose 0.5-2 µM, time 60.0 min"}, "[19]": {"test": "Toxicity in C57BL/6 mouse assessed as effect on spleen at 20 to 40 mg/kg, ig administered for 28 days", "assay_type": "organism-based", "conditions": "in vivo, po, 672 h, dose 20-40 mg/kg, time 28 day"}, "[20]": {"molecular_target": "NACHT, LRR and PYD domains-containing protein 3 (Mus musculus) (UniProt Q8R4B8)", "test": "Inhibition of NLRP3 inflammasome activation in LPS-stimulated mouse bone marrow-derived macrophages assessed as reduction in pro IL-1beta secretion in cell lysate at 2 uM preincubated for 30 mins followed by nigericin addition and measured after 0.5 hrs by Western blot analysis", "assay_type": "subcellular", "conditions": "Macrophage, time 60.0 min"}, "BMDM [21]": {"test_system": "BMDM", "test": "Effect on pro-IL1beta expression in LPS-stimulated mouse bone marrow-derived macrophages at 0.5 to 2 uM preincubated for 30 mins followed by nigericin addition and measured after 30 mins by Western blot analysis", "assay_type": "functional, tissue-based", "conditions": "dose 0.5-2 µM, time 60.0 min"}, "[22]": {"molecular_target": "NACHT, LRR and PYD domains-containing protein 3 (Mus musculus) (UniProt Q8R4B8)", "test": "Inhibition of NLRP3 inflammasome activation in LPS-stimulated mouse bone marrow-derived macrophages assessed as reduction in caspase1 p20 in supernatant at 2 uM preincubated for 30 mins followed by MSU addition and measured after 0.5 hrs by Western blot analysis", "assay_type": "tissue-based", "conditions": "Macrophage, time 60.0 min"}, "[23]": {"molecular_target": "NACHT, LRR and PYD domains-containing protein 3 (Mus musculus) (UniProt Q8R4B8)", "test": "Inhibition of NLRP3 inflammasome activation in LPS-stimulated mouse bone marrow-derived macrophages assessed as reduction in activated caspase1 p20 in supernatant at 2 uM preincubated for 30 mins followed by ATP addition and measured after 0.5 hrs by Western blot analysis", "assay_type": "tissue-based", "conditions": "Macrophage, time 60.0 min"}, "[24]": {"test": "Toxicity in C57BL/6 mouse assessed as induction of lethargy at 20 to 40 mg/kg, ig administered for 28 days", "assay_type": "organism-based", "conditions": "in vivo, po, 672 h, dose 20-40 mg/kg, time 28 day"}, "[25]": {"test": "Cmax in mouse at 2 mg/kg, iv measured after 0.08 to 24 hrs by LC-MS/MS analysis", "assay_type": "ADME, organism-based", "set-up": "route intravenous, time 0.08-24 hrs, dose 2 mg/kg", "conditions": "in vivo"}, "[26]": {"test": "AUC (0 to infinity) in mouse at 20 mg/kg, po measured up to 24 hrs by LC-MS/MS analysis", "assay_type": "ADME, organism-based", "set-up": "route oral, dose 20 mg/kg, time <=24", "conditions": "in vivo"}, "Mus musculus [27]": {"test_system": "Mus musculus", "test": "Downregulation of phosphorylated p65 expression in colon of C57BL/6 mouse model of DSS-induced ulcerative colitis at 10 to 20 mg/kg, ig administered for 7 days by Western blot analysis", "assay_type": "functional, organism-based", "conditions": "dose 10-20 mg/kg, time 7.0 day"}, "[28]": {"test": "Clearance in mouse at 2 mg/kg, iv measured after 0.08 to 24 hrs by LC-MS/MS analysis", "assay_type": "ADME, organism-based", "conditions": "in vivo, time 0.08-24 hrs"}, "[29]": {"test": "Toxicity in C57BL/6 mouse assessed as induction of convulsion at 20 to 40 mg/kg, ig administered for 28 days", "assay_type": "organism-based", "conditions": "in vivo, po, 672 h, dose 20-40 mg/kg, time 28 day"}, "[30]": {"molecular_target": "NACHT, LRR and PYD domains-containing protein 3 (Mus musculus) (UniProt Q8R4B8)", "test": "Inhibition of NLRP3 inflammasome activation in LPS-stimulated mouse bone marrow-derived macrophages assessed as reduction in cleaved IL-1beta secretion in supernatant at 2 uM preincubated for 30 mins followed by nigericin addition and measured after 0.5 hrs by Western blot analysis", "assay_type": "tissue-based", "conditions": "Macrophage, time 60.0 min"}, "[31]": {"molecular_target": "NACHT, LRR and PYD domains-containing protein 3 (Mus musculus) (UniProt Q8R4B8)", "test": "Inhibition of NLRP3 inflammasome activation in LPS-stimulated mouse bone marrow-derived macrophages assessed as reduction in IL-1beta secretion at 1 to 4 uM preincubated for 30 mins followed by nigericin addition and measured after 0.5 hrs by Western blot analysis", "assay_type": "tissue-based", "conditions": "Macrophage, dose 1-4 µM"}}, "note": "The source made the active and inactive calls. No cut-off for these calls is given here.", "data": [{"smiles": "COc1cc(/C=C/c2ccc(NC(=O)C3CC3)cc2)c(/C=C/[N+](=O)[O-])c(OC)c1", "values": [{"measurement": "inhibition", "setting": "[1]", "result": "inactive"}, {"measurement": "inhibition", "setting": "[2]", "result": "Active"}, {"measurement": "inhibition", "setting": "[3]", "result": "Dose-Dependent Effect"}, {"measurement": "Activity", "setting": "[4]", "result": "Non-Toxic"}, {"measurement": "Activity", "setting": "Mus musculus [5]", "result": "Active"}, {"measurement": "inhibition", "setting": "[6]", "result": "Dose-Dependent Effect"}, {"measurement": "Activity", "setting": "Mus musculus [7]", "result": "Active"}, {"measurement": "inhibition", "setting": "[8]", "result": "Dose-Dependent Effect"}, {"measurement": "microsomal CLint", "setting": "[9]", "result": 32, "unit": "µL/min/mg"}, {"measurement": "half-life", "setting": "[10]", "result": 4.93, "unit": "h"}, {"measurement": "Activity", "setting": "Mus musculus [11]", "result": "Active"}, {"measurement": "inhibition", "setting": "[12]", "result": "Active"}, {"measurement": "inhibition", "setting": "Mus musculus [13]", "result": "Active"}, {"measurement": "Activity", "setting": "Mus musculus [14]", "result": "Active"}, {"measurement": "Activity", "setting": "BMDM [15]", "result": "inactive"}, {"measurement": "Activity", "setting": "Mus musculus [16]", "result": "Active"}, {"measurement": "Kd", "setting": "[17]", "result": 263, "unit": "nM"}, {"measurement": "Activity", "setting": "BMDM [18]", "result": "inactive"}, {"measurement": "Activity", "setting": "[19]", "result": "Non-Toxic"}, {"measurement": "inhibition", "setting": "[20]", "result": "Active"}, {"measurement": "Activity", "setting": "BMDM [21]", "result": "inactive"}, {"measurement": "inhibition", "setting": "[22]", "result": "Active"}, {"measurement": "inhibition", "setting": "[23]", "result": "Active"}, {"measurement": "Activity", "setting": "[24]", "result": "Non-Toxic"}, {"measurement": "Cmax", "setting": "[25]", "result": 355, "unit": "ng/mL"}, {"measurement": "AUC", "setting": "[26]", "result": 845.93, "unit": "ng·h/mL"}, {"measurement": "Activity", "setting": "Mus musculus [27]", "result": "Active"}, {"measurement": "clearance", "setting": "[28]", "result": 87.5, "unit": "mL/min/kg"}, {"measurement": "Activity", "setting": "[29]", "result": "Non-Toxic"}, {"measurement": "inhibition", "setting": "[30]", "result": "Active"}, {"measurement": "inhibition", "setting": "[31]", "result": "Active"}]}]}
